Experimental data published in patent US5843889A, “Glycopeptide antibiotic derivatives” (Eli Lilly and Company, priority 1997, dated 1998).
≈ marks a conversion by molar mass, not a printed value.

Experiments:
Type in all cases: cell-based
[1] = system: Entercoccus faecalis 2041; test: MIC, standard broth micro-dilution assay
Procedure: (§1) The formula I compounds have in vitro and in vivo activity against Gram-positive pathogenic bacteria. The MIC's were determined using a standard broth micro-dilution assay.

[2] = system: Entercoccus faecalis 276; test: MIC, standard broth micro-dilution assay
Procedure: as §1

[3] = system: Entercoccus gallinarum 245; test: MIC, standard broth micro-dilution assay
Procedure: as §1

[4] = system: Pedicoccus acidilacti; test: MIC, agar dilution on brain-heart infusion agar; settings: Pedioccccus acidilacti (mean of 10)
[5] = system: Pediococcus pentosaceus; test: MIC, agar dilution on brain-heart infusion agar; settings: Pediococcus pentosaceus (mean of 2)
[6] = system: Leuconostoc lactis; test: MIC, agar dilution on brain-heart infusion agar; settings: Leuconostoc lactis (mean of 2)
[7] = system: Leuconostoc mesenteroides; test: MIC, agar dilution on brain-heart infusion agar; settings: Leuconostoc mesenteroides (mean of 4)
[8] = system: Leuconostoc pseudomesenteroides; test: MIC, agar dilution on brain-heart infusion agar
[9] = system: Lactobacillus confusus; test: MIC, agar dilution on brain-heart infusion agar
[10] = system: Entercoccus faecium 180-1; test: MIC, standard broth micro-dilution assay
Procedure: (§2) The MIC's were determined using a standard broth micro-dilution assay.

[11] = system: Entercoccus faecium 180; test: MIC, standard broth micro-dilution assay
Procedure: as §2

[12] = system: Escherichia coli EC14; test: MIC, standard broth micro-dilution assay
Procedure: as §2

[13] = system: Haemophilus influenzae RD; test: MIC, standard broth micro-dilution assay
Procedure: as §2

[14] = system: Staphylococcus aureus 446; test: MIC, standard broth micro-dilution assay
Procedure: as §2

[15] = system: Staphylococcus aureus 447; test: MIC, standard broth micro-dilution assay
Procedure: as §2

[16] = system: Staphylococcus aureus 489; test: MIC, standard broth micro-dilution assay
Procedure: as §2

[17] = system: Staphylococcus aureus 491; test: MIC, standard broth micro-dilution assay
Procedure: as §2

[18] = system: Staphylococcus aureus SA1199A; test: MIC, standard broth micro-dilution assay
Procedure: as §2

[19] = system: Staphylococcus aureus SA1199; test: MIC, standard broth micro-dilution assay
Procedure: as §2

[20] = system: Staphylococcus aureus X400; test: MIC, standard broth micro-dilution assay
Procedure: as §2

[21] = system: Staphylococcus aureus X778; test: MIC, standard broth micro-dilution assay
Procedure: as §2

[22] = system: Staphylococcus epidermidis 270; test: MIC, standard broth micro-dilution assay
Procedure: as §2

[23] = system: Staphylococcus haemolyticus 105; test: MIC, standard broth micro-dilution assay
Procedure: as §2

[24] = system: Staphylococcus haemolyticus 415; test: MIC, standard broth micro-dilution assay
Procedure: as §2

[25] = system: Streptococcus pneumoniae P1; test: MIC, standard broth micro-dilution assay
Procedure: as §2

[26] = system: Staphylococcus aureus S13E
Procedure: as §2

[27] = system: Staphylococcus aureus SA1199B
Procedure: as §2

[28] = system: Leuconostoc citreum; test: MIC, agar dilution on brain-heart infusion agar

SMILES	MIC [1] [µg/mL]	MIC [2] [µg/mL]	MIC [3] [µg/mL]	MIC [4] [µg/mL]	MIC [5] [µg/mL]	MIC [6] [µg/mL]	MIC [7] [µg/mL]	MIC [8] [µg/mL]	MIC [9] [µg/mL]	MIC [10] [µg/mL]	MIC [11] [µg/mL]	MIC [12] [µg/mL]	MIC [13] [µg/mL]	MIC [14] [µg/mL]	MIC [15] [µg/mL]	MIC [16] [µg/mL]	MIC [17] [µg/mL]	MIC [18] [µg/mL]	MIC [19] [µg/mL]	MIC [20] [µg/mL]	also measured
CNC(CC(C)C)C(=O)NC1C(=O)NC(CC(N)=O)C(=O)NC2C(=O)NC3C(=O)NC(C(=O)NC(C(=O)O)c4cc(O)cc(O)c4-c4cc3ccc4O)C(OC3CC(C)(N)C(O)C(C)O3)c3ccc(c(Cl)c3)Oc3cc2cc(c3OC2OC(CO)C(O)C(O)C2OC2CC(C)(NCc3ccc(Sc4ccccc4)cc3)C(O)C(C)O2)Oc2ccc(cc2Cl)C1O (centres unmarked) [Compound 108, 4-thiophenylbenzyl]	≤ 0.06	0.5 (≈ 0.279 µM)	≤ 0.06	12 (≈ 6.7 µM)	23 (≈ 12.8 µM)	8.0 (≈ 4.47 µM)	10 (≈ 5.58 µM)	32 (≈ 17.9 µM)	16 (≈ 8.93 µM)												
CNC(CC(C)C)C(=O)NC1C(=O)NC(CC(N)=O)C(=O)NC2C(=O)NC3C(=O)NC(C(=O)NC(C(=O)O)c4cc(O)cc(O)c4-c4cc3ccc4O)C(OC3CC(C)(N)C(O)C(C)O3)c3ccc(c(Cl)c3)Oc3cc2cc(c3OC2OC(CO)C(O)C(O)C2OC2CC(C)(NCc3ccc(OC(F)(F)F)cc3)C(O)C(C)O2)Oc2ccc(cc2Cl)C1O (centres unmarked) [Compound 6, 4-trifluoromethoxybenzyl]	≤ 0.06		≤ 0.06	4.3 (≈ 2.43 µM)	8.0 (≈ 4.53 µM)	8.0 (≈ 4.53 µM)	9.5 (≈ 5.38 µM)	16 (≈ 9.06 µM)	16 (≈ 9.06 µM)												
CNC(CC(C)C)C(=O)NC1C(=O)NC(CC(N)=O)C(=O)NC2C(=O)NC3C(=O)NC(C(=O)NC(C(=O)O)c4cc(O)cc(O)c4-c4cc3ccc4O)C(OC3CC(C)(N)C(O)C(C)O3)c3ccc(c(Cl)c3)Oc3cc2cc(c3OC2OC(CO)C(O)C(O)C2OC2CC(C)(NCc3ccc4c(c3)OCO4)C(O)C(C)O2)Oc2ccc(cc2Cl)C1O (centres unmarked) [Compound 48, 3,4-methylenedioxylbenzyl]	≤ 0.06	≤ 0.06	1 (≈ 0.579 µM)							≤ 0.06	1 (≈ 0.579 µM)	> 64	> 64	0.125 (≈ 0.0724 µM)	2 (≈ 1.16 µM)	≤ 0.06	0.25 (≈ 0.145 µM)	≤ 0.06	0.25 (≈ 0.145 µM)	≤ 0.06	MIC [21]: ≤ 0.06 µg/mL; MIC [22]: 1 µg/mL (≈ 0.579 µM); MIC [23]: 2 µg/mL (≈ 1.16 µM); MIC [24]: 8 µg/mL (≈ 4.63 µM); MIC [25]: ≤ 0.06 µg/mL; MIC [26]: ≤ 0.06 µg/mL; MIC [27]: 1 µg/mL (≈ 0.579 µM)
CNC(CC(C)C)C(=O)NC1C(=O)NC(CC(N)=O)C(=O)NC2C(=O)NC3C(=O)NC(C(=O)NC(C(=O)O)c4cc(O)cc(O)c4-c4cc3ccc4O)C(OC3CC(C)(N)C(O)C(C)O3)c3ccc(c(Cl)c3)Oc3cc2cc(c3OC2OC(CO)C(O)C(O)C2OC2CC(C)(NCc3ccc(-c4ccccc4)cc3)C(O)C(C)O2)Oc2ccc(cc2Cl)C1O (centres unmarked) [Compound 2, p-phenylbenzyl.cndot.A82846B]		0.5 (≈ 0.284 µM)	≤ 0.06	5.9 (≈ 3.35 µM)	11 (≈ 6.25 µM)	4.0 (≈ 2.27 µM)	16 (≈ 9.1 µM)	32 (≈ 18.2 µM)	16 (≈ 9.1 µM)												
CNC(CC(C)C)C(=O)NC1C(=O)NC(CC(N)=O)C(=O)NC2C(=O)NC3C(=O)NC(C(=O)NC(C(=O)O)c4cc(O)cc(O)c4-c4cc3ccc4O)C(OC3CC(C)(N)C(O)C(C)O3)c3ccc(c(Cl)c3)Oc3cc2cc(c3OC2OC(CO)C(O)C(O)C2OC2CC(C)(NCc3ccc4c(c3)Cc3ccccc3-4)C(O)C(C)O2)Oc2ccc(cc2Cl)C1O (centres unmarked) [Compound 32, 2-fluorenylmethyl]					16 (≈ 9.04 µM)	16 (≈ 9.04 µM)	16 (≈ 9.04 µM)		16 (≈ 9.04 µM)												MIC [28]: 64 µg/mL (≈ 36.1 µM)
CNC(CC(C)C)C(=O)NC1C(=O)NC(CC(N)=O)C(=O)NC2C(=O)NC3C(=O)NC(C(=O)NC(C(=O)O)c4cc(O)cc(O)c4-c4cc3ccc4O)C(OC3CC(C)(N)C(O)C(C)O3)c3ccc(c(Cl)c3)Oc3cc2cc(c3OC2OC(CO)C(O)C(O)C2OC2CC(C)(NCc3cccc(Oc4ccccc4)c3)C(O)C(C)O2)Oc2ccc(cc2Cl)C1O (centres unmarked) [Compound 49, 3-phenoxybenzyl]	≤ 0.06	0.25 (≈ 0.141 µM)	1 (≈ 0.563 µM)	55 (≈ 31 µM)	64 (≈ 36.1 µM)	64 (≈ 36.1 µM)	64 (≈ 36.1 µM)		64 (≈ 36.1 µM)	≤ 0.06	0.25 (≈ 0.141 µM)	> 64	> 64	0.5 (≈ 0.282 µM)	1 (≈ 0.563 µM)	≤ 0.06	0.125 (≈ 0.0704 µM)	≤ 0.06	2 (≈ 1.13 µM)	0.125 (≈ 0.0704 µM)	MIC [21]: ≤ 0.06 µg/mL; MIC [22]: 1 µg/mL (≈ 0.563 µM); MIC [23]: 1 µg/mL (≈ 0.563 µM); MIC [24]: 1 µg/mL (≈ 0.563 µM); MIC [25]: ≤ 0.06 µg/mL; MIC [26]: ≤ 0.06 µg/mL; MIC [27]: 1 µg/mL (≈ 0.563 µM)
CNC(CC(C)C)C(=O)NC1C(=O)NC(CC(N)=O)C(=O)NC2C(=O)NC3C(=O)NC(C(=O)NC(C(=O)O)c4cc(O)cc(O)c4-c4cc3ccc4O)C(OC3CC(C)(N)C(O)C(C)O3)c3ccc(c(Cl)c3)Oc3cc2cc(c3OC2OC(CO)C(O)C(O)C2OC2CC(C)(NCc3ccc(Oc4ccccc4)cc3)C(O)C(C)O2)Oc2ccc(cc2Cl)C1O (centres unmarked) [Compound 4, p-phenoxybenzyl.cndot.A82846B]	≤ 0.06	≤ 0.06	≤ 0.06	7.5 (≈ 4.23 µM)	16 (≈ 9.02 µM)	16 (≈ 9.02 µM)	16 (≈ 9.02 µM)	32 (≈ 18 µM)	32 (≈ 18 µM)												
CNC(CC(C)C)C(=O)NC1C(=O)NC(CC(N)=O)C(=O)NC2C(=O)NC3C(=O)NC(C(=O)NC(C(=O)O)c4cc(O)cc(O)c4-c4cc3ccc4O)C(OC3CC(C)(N)C(O)C(C)O3)c3ccc(c(Cl)c3)Oc3cc2cc(c3OC2OC(CO)C(O)C(O)C2OC2CC(C)(NCc3cc(-c4ccccc4)nc4ccc(OC)cc34)C(O)C(C)O2)Oc2ccc(cc2Cl)C1O (centres unmarked) [Compound 45, 4-[2-phenyl-6-methoxy]quinoylmethyl]	0.125 (≈ 0.0679 µM)	0.25 (≈ 0.136 µM)	0.5 (≈ 0.272 µM)							≤ 0.06	1 (≈ 0.544 µM)	> 64	> 64	1 (≈ 0.544 µM)	16 (≈ 8.7 µM)	0.5 (≈ 0.272 µM)	1 (≈ 0.544 µM)	≤ 0.06	2 (≈ 1.09 µM)	0.25 (≈ 0.136 µM)	MIC [21]: 0.25 µg/mL (≈ 0.136 µM); MIC [22]: 8 µg/mL (≈ 4.35 µM); MIC [23]: 16 µg/mL (≈ 8.7 µM); MIC [24]: 8 µg/mL (≈ 4.35 µM); MIC [25]: ≤ 0.06 µg/mL; MIC [26]: 0.5 µg/mL (≈ 0.272 µM); MIC [27]: 1 µg/mL (≈ 0.544 µM)
